Measurements: patent US12502386B2, “Nitrogen-containing heterocyclic compound and use thereof” (SHANGHAI SHIJIANG BIOTECHNOLOGY CO., LTD, priority 2022, dated 2025)
pIC50: −log10 of the molar value. Like-named read-outs stand apart in the source and are kept apart here.

How the values were obtained:
[1] = tested on: SF-126; assay: CellTiter-Glo cell viability, tumor cell line SF-126; format: cell-based; conditions: SF-126, 72 h, read-out: inhibitory effect on SF-126 (IC50); human glioblastoma multiforme cell; 3 days of culture
Procedure: (§1) Cell viability was detected using the Promega CellTiter-Glo kit, cell viability was determined by directly measuring intracellular ATP content. In the experiment, the IC50 value of the compounds prepared in the Examples of the present invention on various tumor cell lines was detected.
(§2) Each tumor cell was cultured in relevant medium. After cell passage, the gradient diluted compounds prepared in the Examples of the present invention was added. After 3 days of culture, the relevant IC50 (50% inhibiting concentration) was measured. The name, source and culture conditions of each tumor cell line were as follows:
Cell line SF126 (JCRB, No. IFO50286) was cultured in 10% fetal bovine serum-containing EMEM medium (+P/S).
(§3) Cell viability was detected using the Promega CellTiter-Glo kit, cell viability was determined by directly measuring intracellular ATP content. In the experiment, the IC50 value of the compounds prepared in the Examples of the present invention on various brain tumor cell lines was detected.

[2] = tested on: NCI-H82; assay: CellTiter-Glo cell viability, tumor cell line NCI-H82; format: cell-based; conditions: NCI-H82, 72 h; human small cell lung cancer cell; 3 days of culture; read-out: inhibitory effect on NCI-H82 (IC50)
Procedure: as §1, §2
Cell line NCI-H82 (ATCC, No. HTB-175) was cultured in 10% fetal bovine serum-containing RPMI1640 medium (+P/S).

[3] = tested on: MDA-MB-453; assay: CellTiter-Glo cell viability, tumor cell line MDA-MB-453; format: cell-based; conditions: Homo sapiens, MDA-MB-453, 72 h; breast cancer cell; 3 days of culture; read-out: inhibitory effect on MDA-MB-453 (IC50)
Procedure: as §1
(§4) Each tumor cell was cultured in relevant medium. After cell passage, the gradient diluted compounds prepared in the Examples of the present invention was added. After 3 days of culture, the relevant IC50 (50% inhibiting concentration) was measured. The name, source and culture conditions of each tumor cell line were as follows: […]

[4] = tested on: NB-1; assay: CellTiter-Glo cell viability, brain tumor cell line NB-1; format: cell-based; conditions: Homo sapiens, NB1, 72 h; brain neuroblastoma cell; 3 days of culture; read-out: inhibitory effect on NB-1 (IC50)
Procedure: as §3, §4

[5] = tested on: GB-1; assay: CellTiter-Glo cell viability, tumor cell line GB-1; format: cell-based; conditions: GB-1, 72 h; human brain glioblastoma cell; 3 days of culture; read-out: inhibitory effect on GB-1 (IC50)
Procedure: as §1, §2
Cell line GB-1 (JCRB, No. IFO50489) was cultured in 10% fetal bovine serum-containing DMEM medium (+P/S).
as §3

[6] = tested on: ov-NNMT NCI-H82 cell; assay: CellTiter-Glo cell viability, ov-NNMT NCI-H82 cell (NNMT overexpressed); format: cell-based, human; conditions: intracellular ATP, read-out: inhibitory effect on OV-NNMT NCI-H82 (IC50)
[7] = tested on: G-401; assay: CellTiter-Glo cell viability, tumor cell line G-401; format: cell-based; conditions: G-401, 72 h; human renal carcinoma Wilms cell; 3 days of culture; read-out: inhibitory effect on G-401 (IC50)
Procedure: as §1, §2
Cell line G-401 (ATCC, No. CRL-1441) was cultured in 10% fetal bovine serum-containing McCoy's 5a medium (+P/S).

[8] = tested on: SW48; assay: CellTiter-Glo cell viability, tumor cell line SW48; format: cell-based; conditions: SW48, 72 h; human colon adenocarcinoma cell; 3 days of culture; read-out: inhibitory effect on SW48 (IC50)
Procedure: as §1, §2
Cell line SW48 (ATCC, No. CCL-231) was cultured in 10% fetal bovine serum-containing Leibovitz's L-15 medium (+P/S).

[9] = tested on: sh-DNMT1 NCI-H82 cell; assay: CellTiter-Glo cell viability, sh-DNMT1 NCI-H82 cell (DNMT1 knocked down); format: cell-based, human; conditions: Homo sapiens, NCI-H82, NCI-H82 with DNMT1 knocked down by shRNA, intracellular ATP, read-out: inhibitory effect on sh-DNMT1 NCI-H82 (IC50)
[10] = tested on: CFPAC-1; assay: CellTiter-Glo cell viability, tumor cell line CFPAC-1; format: cell-based; conditions: CFPAC-1, 72 h; human pancreatic cancer cell; 3 days of culture; read-out: inhibitory effect on CFPAC-1 (IC50)
Procedure: as §1, §2
Cell line CFPAC-1 (ATCC, No. CRL-1918) was cultured in 10% fetal bovine serum-containing IMDM medium (+P/S).

[11] = tested on: D341 Med; assay: CellTiter-Glo cell viability, brain tumor cell line D341 Med; format: cell-based; conditions: Homo sapiens, 72 h, cerebellar medulloblastoma cell, 3 days of culture, read-out: inhibitory effect on D341 Med (IC50)
Procedure: as §3, §2
Cell line D341 Med (ATCC, No. HTB-187) was cultured in 20% fetal bovine serum-containing EMEM medium (+P/S).

[12] = tested on: Con-NCI-H82 cell; assay: CellTiter-Glo cell viability, Con-NCI-H82 cell (empty-vector control); format: cell-based, human; conditions: Homo sapiens, NCI-H82, NCI-H82 transfected with empty virus vector (control), intracellular ATP, read-out: inhibitory effect on Con-NCI-H82 (IC50)
[13] = tested on: 786-O; assay: CellTiter-Glo cell viability, tumor cell line 786-O; format: cell-based; conditions: Homo sapiens, 786-0, 72 h; clear cell renal cell adenocarcinoma cell; 3 days of culture; read-out: inhibitory effect on 786-O (IC50)
Procedure: as §1, §2
Cell line 786-0 (ATCC, No. CRL-1932) was cultured in 10% fetal bovine serum-containing RPMI164B medium (+P/S).

[14] = tested on: Kelly; assay: CellTiter-Glo cell viability, brain tumor cell line Kelly; format: cell-based; conditions: Homo sapiens, 72 h, brain neuroblastoma cell, 3 days of culture, read-out: inhibitory effect on Kelly (IC50)
Procedure: as §3, §2
Cell line Kelly (ECACC, No. 92110411) was cultured in 10% fetal bovine serum and 2 mM glutamine-containing RPMI1640 medium.

[15] = Homo sapiens, NCI-H82, NCI-H82 overexpressing NNMT protein

| SMILES | pIC50 [1] | pIC50 [2] | pIC50 [3] | pIC50 [4] | pIC50 [5] | pIC50 [6, 15] | pIC50 [7] | pIC50 [8] | pIC50 [9] | pIC50 [10] | pIC50 [11] | pIC50 [12] | pIC50 [13] | pIC50 [14] | pIC50 ([6]; NCI-H82 overexpressing NNMT protein) |
| --- | --- | --- | --- | --- | --- | --- | --- | --- | --- | --- | --- | --- | --- | --- | --- |
| CCCOc1c(OC)ccc2c1CN1CCc3cc4c(cc3C1=C2)OCO4 [AB35536] | 4.63 | 6.28 | 6.03 | 5.51 | 4.78 | 5.65 | 5.86 | 5.90 | 5.59 | 5.00 | 5.97 | 6.28 | 4.81 | 5.59 | – |
| COc1ccc2c(c1OCCCc1ccccc1)C(C(Cl)(Cl)Cl)N1CCc3cc4c(cc3C1=C2)OCO4 (stereo not drawn) [AB35525] | 4.70 | 6.29 | 5.77 | 5.73 | < 4.52 | 5.69 | 6.01 | 5.63 | 5.50 | 4.79 | 6.02 | 6.29 | 4.85 | 5.51 | – |
| COc1ccc2c(c1OC)C(C1CCC1)N1CCc3cc4c(cc3C1=C2)OCO4 (stereo not drawn) [AB36447] | < 4.52 | 5.69 | 5.67 | 5.69 | 4.61 | 5.30 | 5.57 | 5.71 | 5.15 | 4.70 | 5.56 | 5.69 | < 4.52 | 5.70 | – |
| COc1ccc2c(c1OCCCCl)CN1CCc3cc4c(cc3C1=C2)OCO4 [AB35543] | 4.80 | 6.26 | 6.06 | 5.63 | 4.87 | 5.57 | 5.97 | 5.81 | 5.51 | 4.99 | 5.77 | 6.26 | 5.01 | 5.81 | – |
| COc1ccc2c(c1N1CCC(C)CC1)C(C1CCCC1)N1CCc3cc4c(cc3C1=C2)OCO4 (stereo not drawn) [AB35510] | 4.61 | 6.51 | 6.25 | 5.77 | 4.84 | 5.81 | 5.92 | 5.70 | 5.73 | 4.88 | 6.12 | 6.51 | 4.61 | 5.69 | – |
| COc1ccc2c(c1OC)C(C1CCCCC1)N1CCc3cc4c(cc3C1=C2)OCO4 (stereo not drawn) [AB31893] | 4.91 | 5.95 | 5.77 | 5.73 | 4.81 | 5.39 | 5.84 | 5.73 | 5.25 | 4.96 | 5.84 | 5.95 | 5.01 | 5.68 | – |
| CCCOc1c(OC)ccc2c1C(C(Cl)(Cl)Cl)N1CCc3cc4c(cc3C1=C2)OCO4 (stereo not drawn) [AB35506] | 4.70 | 6.08 | 5.81 | 5.41 | 4.59 | 5.58 | 5.90 | 5.67 | 5.60 | 4.85 | 5.78 | 6.08 | 4.99 | 5.44 | – |
| C=CCOc1c(OC)ccc2c1C(C(Cl)(Cl)Cl)N1CCc3cc4c(cc3C1=C2)OCO4 (stereo not drawn) [AB35534] | 4.72 | 5.88 | 5.73 | 5.80 | 4.69 | 5.40 | 5.69 | 5.61 | 5.42 | 4.77 | 5.51 | 5.88 | 4.84 | 5.68 | – |
| CCCOc1c(OC)ccc2c1C(C1CCCC1)N1CCc3cc4c(cc3C1=C2)OCO4 (stereo not drawn) [AB35512] | 4.74 | 6.21 | 5.81 | 5.81 | 4.63 | 5.62 | 5.88 | 5.69 | 5.63 | 4.76 | 5.70 | 6.21 | 4.81 | 5.37 | – |
| COc1ccc2c(c1OC)C(C1CCCC1)N1CCc3cc4c(cc3C1=C2)OCO4 (stereo not drawn) [AB31900] | 4.70 | 5.97 | 5.84 | 6.06 | < 4.52 | – | 5.88 | 5.89 | – | 4.74 | 6.01 | – | 4.80 | 5.95 | 5.31 |
